Results as given in patent publication US8871796B2, “Diaryl ether derivatives as notch sparing gamma secretase inhibitors” (Merck Sharp & Dohme Corp., priority 2009, dated 2014).
Read-outs that look alike come from different tables or passages of the source.

Assay: APP processing: AlphaLisa assay of secreted Aβ40 and Aβ42 from SP4CT cells
Assay type: cell-based
Details: Homo sapiens, SH-SY5Y cells expressing amyloid β protein (SP4CT cells)
Procedure: APP Processing (Assay Quantitates Secreted Aβ Analytes from Cell Lines):
The effect of compounds on the abundance of Aβ40 and Aβ42 peptides generated from SH-SY5Y cells expressing amyloid β protein (SP4CT cells) are determined by an AlphaLisa™ assay. Analogous to an ELISA assay, generation of […] AlphaLisa™ assay requires “donor” and “acceptor” beads to be brought in close proximity by specific antibody recognition of either Aβ40 or Aβ42 peptides. The assay is accomplished by removing media from compound-treated SP4CT cells to two different microplates, followed by the addition of donor beads conjugated with streptavidin binding a biotinylated anti-amyloid β monocolonal antibody (clone 4G8). Acceptor beads directly conjugated with anti-Aβ40 monoclonal antibody (G210) are added to one microplate and anti-Aβ42 monoclonal antibody (12F4) acceptor beads were added to the other. Abundance of Aβ40 and Aβ42 is directly proportional to the luminescent signal generated following excitation of donor beads by laser light.

[1] = read-out: IC50, inhibition of production of Aβ40 peptide
[2] = read-out: IC50, inhibition of production of Aβ42 peptide

| Compound | IC50 [1] | IC50 [2] |
| --- | --- | --- |
| CCn1nc(-c2cccc(C(C)(C)NS(=O)(=O)CC(F)(F)F)c2)cc1Oc1ccc(C(F)(F)F)cc1 [Example 1, N-[1-(3-{1-ethyl-5-[4-(trifluoromethyl)phenoxy]-1H-pyrazol-3-yl}phenyl)-1-methylethyl]-2,2,2-trifluoroethanesulfonamide] | < 200 nM | < 200 nM |
| CCn1nc(-c2cccc(C(C)(C)NS(=O)(=O)CC3CCC3)c2)cc1Oc1ccc(C(F)(F)F)cc1 [Example 2, 1-cyclobutyl-N-[1-(3-{1-ethyl-5-[4-(trifluoromethyl)phenoxy]-1H-pyrazol-3-yl}phenyl)-1-methylethyl]methanesulfonamide] | < 200 nM | < 200 nM |
| CCn1nc(-c2cccc(C(C)(C)NS(=O)(=O)NCC(F)(F)F)c2)cc1Oc1ccc(C(F)(F)F)cc1 [Example 4, N-[1-(3-{1-ethyl-5-[4-(trifluoromethyl)phenoxy]-1H-pyrazol-3-yl}phenyl)-1-methylethyl]-N′-(2,2,2-trifluoroethyl)sulfamide] | < 200 nM | < 200 nM |
| CCn1nc(-c2cccc(C(C)(C)NS(=O)(=O)CC(F)(F)F)c2)cc1Oc1ccccc1F [Example 7, N-(1-{3-[1-ethyl-5-(2-fluorophenoxy)-1H-pyrazol-3-yl]phenyl}-1-methylethyl)-2,2,2-trifluoroethanesulfonamide] | < 200 nM | < 200 nM |
| CCCNS(=O)(=O)NC(C)(C)c1cccc(-c2cc(Oc3ccc(C(F)(F)F)cc3)n(CC)n2)c1 [Example 8, N-[1-(3-{1-ethyl-5-[4-(trifluoromethyl)phenoxy]-1H-pyrazol-3-yl}phenyl)-1-methylethyl]-N′-propylsulfamide] | < 200 nM | < 200 nM |
| CCn1nc(-c2cccc(C(C)(C)NS(=O)(=O)NCC(C)C)c2)cc1Oc1ccc(C(F)(F)F)cc1 [Example 9, N-[1-(3-{1-ethyl-5-[4-(trifluoromethyl)phenoxy]-1H-pyrazol-3-yl}phenyl)-1-methylethyl]-N′-isobutylsulfamide] | < 200 nM | < 200 nM |
| CCn1nc(-c2cccc(C(C)(C)NS(=O)(=O)N3CCCC3)c2)cc1Oc1ccc(C(F)(F)F)cc1 [Example 11, N-[1-(3-{1-ethyl-5-[4-(trifluoromethyl)phenoxy]-1H-pyrazol-3-yl}phenyl)-1-methylethyl]pyrrolidine-1-sulfonamide] | < 200 nM | < 200 nM |
| CCn1nc(-c2cccc(C(C)(C)NS(=O)(=O)N(C)C)c2)cc1Oc1ccc(C(F)(F)F)cc1 [Example 14, N′-[1-(3-{1-ethyl-5-[4-(trifluoromethyl)phenoxy]-1H-pyrazol-3-yl}phenyl)-1-methylethyl]-N,N-dimethylsulfamide] | < 200 nM | < 200 nM |
| CCn1nc(-c2cc(F)cc(C(C)(C)NS(=O)(=O)CC(F)(F)F)c2)cc1Oc1ccc(C(F)(F)F)cc1 [Example 15, N-[1-(3-{1-ethyl-5-[4-(trifluoromethyl)phenoxy]-1H-pyrazol-3-yl}-5-fluorophenyl)-1-methylethyl]-2,2,2-trifluoraethanesulfonamide] | < 200 nM | < 200 nM |
| CCn1nc(Oc2ccc(C(F)(F)F)cc2)cc1-c1cccc(C(C)(C)NS(=O)(=O)NC2CCC2)c1 [Example 16, N-cyclobutyl-N′-[1-(3-{1-ethyl-3-[4-(trifluoromethyl)phenoxy]-1H-pyrazol-5-yl}phenyl)-1-methylethyl]sulfamide] | < 200 nM | < 200 nM |
| CCn1nc(Oc2ccc(C(F)(F)F)cc2)cc1-c1cccc(C(C)(C)NS(=O)(=O)NCC(C)C)c1 [Example 17, N-[1-(3-{1-ethyl-3-[4-(trifluoromethyl)phenoxy]-1H-pyrazol-5-yl}phenyl)-1-methylethyl]-N′-isobutylsulfamide] | < 200 nM | < 200 nM |
| CCn1nc(Oc2ccc(C(F)(F)F)cc2)cc1-c1cccc(C(C)(C)NS(=O)(=O)NC2CCCC2)c1 [Example 18, N-cyclopentyl-N′-[1-(3-{1-ethyl-3-[4-(trifluoromethyl)phenoxy]-H-pyrazol-5-yl}phenyl)-1-methylethyl]sulfamide] | < 200 nM | < 200 nM |
| CCn1nc(Oc2ccc(Cl)nc2)cc1-c1cccc(C(C)(C)NS(=O)(=O)CC(F)(F)F)c1 [Example 22, N-[1-(3-{3-[(6-chloropyridin-3-yl)oxy]-1-ethyl-1H-pyrazol-5-yl]phenyl)-1-methylethyl]-2,2,2-trifluoroethanesulfonamide] | < 200 nM | < 200 nM |

The next lines start with the values.

| IC50 [1] | IC50 [2] | Compound |
| --- | --- | --- |
| < 200 nM | < 200 nM | CCn1nc(-c2cccc(C(C)(C)NS(=O)(=O)NC3CCC3)c2)cc1Oc1ccc(C(F)(F)F)cc1 [Example 3, N-cyclobutyl-N′-[1-(3-{1-ethyl-5-[4-(trifluoromethyl)phenoxy]-1H-pyrazol-3-y}phenyl)-1-methylethyl]sulfamide] |
| < 200 nM | < 200 nM | CCn1nc(-c2cccc(C(C)(C)NS(=O)(=O)CC(F)(F)F)c2)cc1Oc1ccc(C(F)(F)F)cc1F [Example 5, N-[1-(3-{1-ethyl-5-[2-fluoro-4-(trifluoromethyl)phenoxy]-1H-pyrazol-3-yl}phenyl)-1-methylethyl]-2,2,2-trifluoroethanesulfonamide] |
| < 200 nM | < 200 nM | CCn1nc(-c2cccc(C(C)(C)NS(=O)(=O)NC)c2)cc1Oc1ccc(C(F)(F)F)cc1 [Example 10, N-[1-(3-{1-ethyl-5-[4-(trifluoromethyl)phenoxy]-1H-pyrazol-3-yl}phenyl)-1-methylethyl]-N′-methylsulfamide] |
| < 200 nM | < 200 nM | CCn1nc(-c2cccc(C(C)(C)NS(=O)(=O)C3CC3)c2)cc1Oc1ccc(C(F)(F)F)cc1 [Example 12, N-[1-(3-{1-ethyl-5-[4-(trifluoromethyl)phenoxy]-1H-pyrazol-3-yl}phenyl)-1-methylethyl] cyclopropanesulfonamide] |
| < 200 nM | < 200 nM | CCn1nc(-c2cccc(C(C)(C)NS(=O)(=O)NC3CCCC3)c2)cc1Oc1ccc(C(F)(F)F)cc1 [Example 13, N-cyclopentyl-N′-[1-(3-{1-ethyl-5-[4-(trifluoromethyl)phenoxy]-1H-pyrazol-3-yl}phenyl)-1-methylethyl]sulfamide] |
| < 200 nM | < 200 nM | CCn1nc(Oc2ccc(C(F)(F)F)cc2)cc1-c1cccc(C(C)(C)NS(=O)(=O)CC(F)(F)F)c1 [Example 20, N-[1-(3-{1-ethyl-3-[4-(trifluoromethyl)phenoxy]-1H-pyrazol-5-yl}phenyl)-1-methylethyl]-2,2,2-trifluoroethanesulfonamide] |
| < 200 nM | < 200 nM | CCn1nc(Oc2ccc(C(F)(F)F)cc2F)cc1-c1cccc(C(C)(C)NS(=O)(=O)CC(F)(F)F)c1 [Example 21, N-[1-(3-{1-ethyl-3-[2-fluoro-4-(trifluoromethyl)phenoxy]-1H-pyrazol-5-yl}phenyl)-1-methylethyl]-2,2,2-trifluoroethanesulfonamide] |
| < 200 nM | < 200 nM | CCCNS(=O)(=O)NC(C)(C)c1cccc(-c2cc(Oc3ccc(C(F)(F)F)cc3)nn2CC)c1 [Example 23, N-[1-(3-{1-ethyl-3-[4-(trifluoromethyl)phenoxy]-1H-pyrazol-5-yl}phenyl)-1-methylethyl]-N′-propylsulfamide] |
